According to US12358921B2, “Antiviral heterocyclic compounds” (priority 2022, dated 2025):

How the values were obtained:
hMPV A2 TN/94-49 = experiment: HMPV antiviral assay Method 2 (LLC-MK2 cells with CP-100-356, ATP-Lite); type: cell-based; conditions: hMPV A2 TN/94-49, LLC-MK2 cells, 4 μM CP-100-356, Method 2
Method: In vitro HMPV antiviral activity was evaluated using the clinical isolate A2 strain TN 94-49 (obtained from Dr. John Williams, Vanderbilt University, Tennessee) and LLC-MK2 cells (Millipore Sigma CB_85062804), an immortalized kidney epithelial cell line from Macaca mulatta. Compounds were resuspended in dimethyl sulfoxide (DMSO) at 10 mM, serially diluted and added to a 384-well source plate. Subsequently, the compounds were diluted and transferred onto 384-well assay plates using the Echo-650 automated liquid handling system (Beckman Coulter, Indiana). The test compounds were assessed in duplicate at a top concentration of 200 nM followed by 2.5-fold serial dilutions to give a total of 10 concentration points. DMSO control wells were also included on the assay plates and were either infected or not, acting as positive and negative controls. A2 TN 94-49 virus infections were performed in-suspension with LLC-MK2 cells. The cells were washed twice with PBS and removed from the cell-culture flask with 0.25% trypsin-EDTA (Thermo Fisher Scientific, MA). The trypsin-EDTA was inactivated by resuspending in 2% fetal bovine serum (FBS) and OptiMEM (ThermoFisher Scientific, MA) containing 1% antibiotic-antimycotic. Cells were pelleted by centrifuging for 5 minutes at 800 rpm, the supernatant was removed, and cells were re-suspended and washed in PBS plus 100 μg/mL CaCl2). This step was performed twice. Cells were then re-suspended in serum-free (SF)-OptiMEM containing 4 μg/mL TPCK-Trypsin (Sigma Aldrich, MO), 1% antibiotic-antimycotic (ThermoFisher Scientific, MA), 100 μg/mL CaCl2), and 4 μM of CP-100-356, a P-glycoprotein inhibitor. Cells were counted and seeded at a density of 5,000 cells/well, 12.5 μL/well. Virus infections were done at a multiplicity of infection (MOI) of 0.16 with 12.5 μL added per well. Virus infections were performed in infection media which contained SF-OptiMEM, 100 μg/mL CaCl2) and 1% antibiotic-antimycotic. HMPV viral stocks are suspended in infection media+5% glycerol, thus an equal volume of infection media+5% glycerol was added to uninfected wells to equalize the final % glycerol across all wells of the assay plate. The final concentration of TPCK-trypsin was 2 μg/mL. The final concentration of CP-100-356 was 2 μM. The assay plates were incubated at 37° C., 5% CO2 for 7 days. After 7 days incubation, 12.5 μL of ATP-Lite (PerkinElmer, MA) was added to each well and the raw luminescence values were determined using the Envision 2104 (Perkin Elmer, MA). The average of the raw luminescence values for the cells and virus only positive control wells was subtracted from all conditions tested and the percent cell health was determined by dividing these values by the average of the cells only negative control wells. EC50 values were then calculated by non-linear regression using a four-parameter curve logistic equation. The curve fit model employed was XLFit Dose Response One Site Model 200: y=(A+(B/(1+((x/C)^D)))), where A is the minimum y value, B is the maximum y value, C is the log EC50value, and D is the slope factor.

[1] = tested on: HUMAN RSV-A (“LONG” STRAIN); experiment: RSV-A assay (CPE, ATPlite) in Hep-2 cells; type: cell-based; conditions: human respiratory syncytial virus, 120 h, MOI 0.1, 5-day incubation
Excerpt: Methods for RSV-A Assay Hep-2 cells, (originally derived from tumors grown in irradiated-cortisonised weanling rats that had been injected with epidermoid carcinoma tissue from the larynx of a person, but later found to be indistinguishable from HeLa cells by PCR DNA analysis), were used for the culturing of genotype A, “Long” strain RSV. Flasks were inoculated with RSV and viral stocks were collected once cytopathic effect (CPE) was greater than 90%. Viral stocks in 25% sucrose media were snap frozen using liquid nitrogen to increase viral stability. Viral stock titers were quantified by tissue culture infectious dose 50% (TCID50) using 8,000 cells per well and 3-fold viral dilutions across a 96-well plate, cultured for 4 days. Viral stock titers were also quantified by a plaque forming unit assay, as described elsewhere.
Following extensive parameter testing, the final assay is run as follows: Hep-2 cells are seeded into the inner 60 wells of a 96-well plate at 8,000 cells per well in a volume of 50 μL using Growth Media (DMEM without phenol red, 1% L-Glut, 1% Penn/Strep, 1% nonessential amino acids, 10% heat-inactivated FBS). 2-fold serial dilutions of control and test compounds are added to the wells in duplicate in a total volume of 25 μL. Viral stock is then added to the wells at a multiplicity of infection (MOI) of 0.1 in a volume of 25 μL, bringing the total volume of each well to 100 μL. The MOI is calculated using the PFU/mL, or TCID50 if unavailable. Each 96-well plate has a control column of 6 wells with cells and virus but no compound (negative control, max CPE), a column with cells but no compound or virus (positive control, minimum CPE), and a column with no cells or virus or compound (background plate/reagent control). The control wells with cells but no virus are given an additional 25 μL of growth media containing an equal quantity of sucrose as those wells receiving the viral stock in order to keep consistent in media and volume conditions. The outer wells of the plate are filled with 125 μL of moat media (DMEM, 1% Penn/Strep) to act as a thermal and evaporative moat around the test wells. Following a 5-day incubation period, the plates are read using ATPlite (50 uL added per well), which quantifies the amount of ATP (a measure of cell health) present in each well. Assay plates are read using the Envision luminometer. […] EC50 ranges are as follows: A<0.2 μM; B>0.2 μM.

Row | SMILES | EC50 (hMPV A2 TN/94-49) [nM] | EC50 [1] [nM]
1 | COc1cc(C(=O)NC[C@](O)(c2cccc(F)c2)c2cc3c(c(-c4cc(F)c(F)cc4C(N)=O)n2)OC[C@]3(C)C(N)=O)cc2cn(C3(F)CC3)nc12 [Example 406] | > 200 | > 200
2 | COc1cc(F)c(-c2nc([C@@](O)(CNC(=O)c3cc(OC)c4nn(C5(F)CC5)cc4c3)c3ccccc3)cc3c2OC[C@]3(C)C(N)=O)cc1F [Example 363] | > 200 | < 200
3 | C[C@]1(C(N)=O)COc2c1cc([C@@](O)(CNC(=O)c1cc(Cl)c3[nH]ncc3c1)c1ccccc1)nc2-c1cc(Cl)c(F)cc1F [Example 117] | > 200 | < 200
4 | COc1cc(C(=O)NC[C@](O)(c2cccc(F)c2)c2cc3c(c(-c4ccc(C(C)(C)O)cc4)n2)OC[C@]3(C)C(N)=O)cc2cn(C3(F)CC3)nc12 [Example 398] | > 200 | > 200
5 | COc1cc(C(=O)NCC(O)(c2cc3c(c(-c4cc(Cl)c(F)cc4F)n2)OC[C@]3(C)C(N)=O)c2ccc(Cl)s2)cc2cn(C3CC3)nc12 (stereo partly drawn) [Example 472] | > 200 | < 200
6 | C[C@]1(C(N)=O)COc2c1cc([C@@](O)(CNC(=O)c1ccc3nc(C4CC4)oc3c1)c1ccccc1)nc2-c1cccc(Cl)c1Cl [Example 97] | < 200 | < 200
7 | COc1cc(C(=O)NC[C@@](O)(c2cccc(F)c2)c2cc3c(c(-c4ccc5c(c4Cl)OC(F)(F)O5)n2)OC[C@]3(C)C(N)=O)cc2oc(C3CC3)nc12 [Example 286] | < 200 | < 200
8 | C[C@]1(C(N)=O)COc2c1cc([C@@](O)(CNC(=O)c1cc(OC(F)F)c3ncc(Cl)cc3c1)c1ccccc1)nc2-c1cc(Cl)c(F)cc1F [Example 231] | < 200 | –
9 | C[C@]1(C(N)=O)COc2c1cc([C@@](O)(CNC(=O)c1cc(C(F)F)c3nn(C4CC4)cc3c1)c1ccccc1)nc2-c1cc(Cl)c(F)cc1F [Example 229] | < 200 | –
10 | C[C@]1(C(N)=O)COc2c1cc([C@@](O)(CNC(=O)c1ccc3nc(C4CC4)oc3c1)c1cccc(F)c1)nc2-c1ccc(F)c(Cl)c1Cl [Example 312] | < 200 | –
11 | C[C@]1(C(N)=O)COc2c1cc([C@@](O)(CNC(=O)c1ccc3nc(C4CC4)oc3c1)c1ccccc1)nc2-c1cc(F)c(F)cc1F [Example 194] | < 200 | –
12 | C[C@]1(C(N)=O)COc2c1cc([C@@](O)(CNC(=O)c1cc(OC3CC3)c3nc(C4CC4)sc3c1)c1ccccc1)nc2-c1cc(Cl)c(F)cc1F [Example 190] | > 200 | –
13 | COc1cc(C(=O)NC[C@@](O)(c2cnc(C3CC3)nc2)c2cc3c(c(-c4cc(Cl)c(F)cc4F)n2)OC[C@]3(C)C(N)=O)cc2cn(C3CC3)nc12 [Example 478] | < 200 | –
14 | COc1cc(C(=O)NCC(O)(c2ccccc2)c2cc3c(c(-c4ccc(F)cc4)n2)OC[C@]3(C)C(N)=O)cc2cn(C3(F)CC3)nc12 (stereo partly drawn) [Example 361] | > 200 | –
15 | C[C@]1(C(N)=O)COc2c1cc([C@@](O)(CNC(=O)c1cc(OC(F)F)c3nc(C4CC4)oc3c1)c1ccccc1)nc2-c1cc(Cl)c(F)cc1F [Example 216] | < 200 | –
16 | C[C@]1(C(N)=O)COc2c1cc([C@@](O)(CNC(=O)c1ccc3nc(C4CCC4)oc3c1)c1ccccc1)nc2-c1cc(Cl)c(F)cc1F [Example 221] | > 200 | –
17 | C[C@]1(C(N)=O)COc2c1cc([C@@](O)(CNC(=O)c1cc(Cl)c3nn(C(F)F)cc3c1)c1ccccc1)nc2-c1cc(Cl)c(F)cc1F [Example 102] | > 200 | –
18 | C[C@]1(C(N)=O)COc2c1cc([C@@](O)(CNC(=O)c1ccc3nc(C(F)F)oc3c1)c1ccccc1)nc2-c1cc(Cl)c(F)cc1F [Example 222] | > 200 | –

Next, values leading:

Row | EC50 (hMPV A2 TN/94-49) [nM] | EC50 [1] [nM] | SMILES
19 | < 200 | < 200 | COc1cc(C(=O)NC[C@@](O)(c2cccc(F)c2)c2cc3c(c(-c4cc(C(F)(F)F)c(F)cc4F)n2)OC[C@]3(C)C(N)=O)cc2cn(C(F)F)nc12 [Example 301]
20 | < 200 | < 200 | COc1cc(C(=O)NC[C@@](O)(c2ccccc2)c2cc3c(c(-c4cc(Cl)c(F)cc4F)n2)OC[C@]3(C)C(N)=O)cc2oc(C3(F)CC3)nc12 [Example 241]
21 | < 200 | < 200 | COc1cc(C(=O)NC[C@@](O)(c2cccc(S(C)(=O)=O)c2)c2cc3c(c(-c4cc(Cl)c(F)cc4F)n2)OC[C@]3(C)C(N)=O)cc2cn(C3CC3)nc12 [Example 483]
22 | < 200 | < 200 | COc1cc(C(=O)NC[C@@](O)(c2ccccc2)c2cc3c(c(-c4cc(F)c(F)cc4F)n2)OC[C@]3(C)C(N)=O)cc2cc(Cl)cnc12 [Example 198]
23 | < 200 | < 200 | [2H]C([2H])([2H])NC(=O)[C@@]1(C)COc2c1cc([C@@](O)(CNC(=O)c1cc(OC)c3nn(C4(F)CC4)cc3c1)c1ccccc1)nc2-c1cc(Cl)c(F)cc1F [Example 109]
24 | < 200 | < 200 | COc1cc(C(=O)NC[C@@](O)(c2cccc(Cl)n2)c2cc3c(c(-c4cc(Cl)c(F)cc4F)n2)OC[C@]3(C)C(N)=O)cc2cn(C3CC3)nc12 [Example 489]
25 | < 200 | < 200 | COc1cc(C(=O)NC[C@@](O)(c2cccc(C(C)=O)c2)c2cc3c(c(-c4cccc(Cl)c4Cl)n2)OC[C@]3(C)C(N)=O)cc2cn(C3CC3)nc12 [Example 493]
26 | < 200 | < 200 | COc1cc(C(=O)NC[C@@](O)(c2cccc(F)n2)c2cc3c(c(-c4cc(Cl)c(F)cc4F)n2)OC[C@]3(C)C(N)=O)cn2cc(C3CC3)nc12 [Example 154]
27 | < 200 | < 200 | COc1cc(C(=O)NC[C@@](O)(c2cnccn2)c2cc3c(c(-c4cc(Cl)c(F)cc4F)n2)OC[C@]3(C)C(N)=O)cc2cn(C3CC3)nc12 [Example 487]
28 | < 200 | < 200 | COc1cc(C(=O)NC[C@@](O)(c2cccc(F)c2)c2cc3c(c(-c4cccc(Cl)c4Cl)n2)OC[C@]3(C)C(N)=O)cc2cc(C3CC3)nn12 [Example 336]
29 | < 200 | < 200 | [2H]C([2H])([2H])NC(=O)[C@@]1(C)COc2c1cc([C@@](O)(CNC(=O)c1cc(OC)c3nc(C4CC4)oc3c1)c1ccccc1)nc2-c1cc(Cl)c(F)cc1F [Example 110]
30 | < 200 | < 200 | COc1cc(C(=O)NC[C@@](O)(c2ccccc2)c2cc3c(c(-c4cccc(F)c4Cl)n2)OC[C@]3(C)C(N)=O)cc2cn(C3(F)CC3)nc12 [Example 368]
31 | < 200 | < 200 | COc1cc(C(=O)NC[C@@](O)(c2cccc(C#N)c2)c2cc3c(c(-c4cc(Cl)c(F)cc4F)n2)OC[C@]3(C)C(N)=O)cc2cn(C3CC3)nc12 [Example 488]
